Experimental data: patent US20240123076A1, “UNSATURATED DENDRIMERS COMPOSITIONS, RELATED FORMULATIONS, AND METHODS OF USE THEREOF” (The Board of Regents of The University of Texas System, priority 2021, published 2024)
Entries after “also recorded” stand apart in the source; their conditions may differ.

Columns and labels:
IGROV-1 cells = test: In vitro luciferase expression of Luc mRNA LNPs; type: cell-based; conditions: IGROV-I cells, 25 ng mRNA per well, 24 h; lipid:DOPE:cholesterol:DMG-PEG2k 15:15:30:3
Experimental: Ionizable lipid, DOPE, cholesterol, DMG-PEG2k were dissolved in ethanol as noted below (S2, base formulation). Firefly Luciferase (Luc) mRNA was diluted in 10 mM citric acid-sodium citrate buffer (pH 4.4). The lipid mixture and nucleic acid solution were rapidly combined at a volumetric ratio of 3:1 nucleic acid:lipid mix. Afterwards, the LNP formulations were diluted with 1×PBS to 1 ng/uL concentration.
IGROV-1 cells were seeded into white 96-well plates at a density of 1×10^4 cells per well the day before transfection with media. Day of transfection, the media was replaced with 200 μL of fresh media. Then, 25 μL of the Luc mRNA formulations were added with a fixed dose of 25 ng mRNA per well. After incubation for another 24 hours, ONE-Glo+ Tox kits (Promega) were used to detect Luc mRNA expression and cytotoxicity.

C57BL/6 mice [1] = test: In vivo luciferase mRNA delivery (bioluminescence imaging, liver); conditions: 4-component LNP, tail vein, 0.25 mg/kg Luc mRNA, 6 h
Experimental: Ionizable lipid(s), DOPE, cholesterol, DMG-PEG2k were dissolved in ethanol as noted below in S2, and the Luc mRNA was diluted in 10 mM citric acid-sodium citrate buffer (pH 4.4) at the desired dosage. The lipid mixture and nucleic acid dilution were rapidly combined at a volumetric ratio of 3:1 nucleic acid:lipid mix. The nanoparticles were dialyzed against 1×PBS in Pur-A-Lyzer midi dialysis chambers (Sigma-Aldrich, WMCO 3.5 kDa) for 2 hours prior to injection.
All experiments were approved by the Institutional Animal Care & Use Committee (IACUC) of The University of Texas Southwestern Medical Center and were consistent with local, state and federal regulations as applicable. Female C57BL/6 mice (18-20 g) were injected with LNP formulations via tail vein injection (5 ug of mRNA, 0.25 mg/kg). After 6 h, the luciferase expression was evaluated by live animal bioluminescence imaging. Animals were anesthetized under isofluorane, and D-Luciferin (150 mg/kg) was introduced by intraperitoneal injection. Then, the luciferase activity was imaged, and ex vivo imaging was performed on systemic organs after resection on an IVIS Lumina system (Perkin Elmer). The images were processed using Living Image analysis software (Perkin Elmer).

[2] = Lipid fusion assay (FRET); conditions: PBS pH 5.5, 37° C., 5 min
Experimental: Endosome mimicking anionic liposomes were prepared by mixing DOPS:DOPC:DOPE:NBD-PE:N-Rh-PE (25:25:48:1:1 molar ratio) in CHCl3 at a fixed total lipid concentration of 1 mM. Afterwards, the film was created by rotary evaporation of the solution, followed by 2 h of vacuum drying to produce a thin lipid film.
LNPs were formulated with the in vivo method. 100 uL PBS (pH 5.5) was added to each well in a black 96-well plate (n=3 per sample), and 1 μL of endosome mimicking anionic liposomes (1 mM) was added to each well. Endosome mimicking anionic liposomes in PBS served as the negative control (Fmin), and the endosome mimic lipids incubated with 2% Triton-X in PBS solutions were set as positive control (Fmax). 10 μL of LNPs being tested were added to the wells (n=3). After incubating at 37° C. for 5 min., fluorescence measurements (F) were conducted on a microplate reader at Ex/Em=465/520 nm. The lipid fusion (%) was calculated as (F−Fmin)/(Fmax−Fmin)*100%.
Fluorescence resonance energy transfer (FRET)-based assay was employed to determine the LNP's ability to disrupt and fuse with the endosomal membrane (FIG. 4). DOPE-conjugated FRET probes (NBD-PE and N—Rh-PE) were formulated into endosome-mimicking nanoparticles. NBD is normally quenched by the rhodamine, but the NBD signal would rise if disruption of the membrane occurred. […]

IGROVI cells = test: Cellular uptake and intracellular trafficking of Cy5-labeled mRNA LNPs (confocal imaging); type: cell-based; conditions: for co-localization of Cy5 mRNA with lysosomes: 4 h and 24 h after incubation; for cellular uptake (internalization) of Cy5 Luc mRNA LNPs: at 4 hours and 24 hours
Experimental: Flash chromatography was performed on a Teledyne Isco CombiFlash Rf-200i chromatography system equipped with UV-Vis and evaporative light scattering detectors (ELSD) or manually using 60 Å, 40-63 um Silica (Sorbtech) or activated, neutral Aluminum Oxide (Sigma-Aldrich). Particle sizes and PDI were measured by Dynamic Light Scattering (DLS) using a Malvern Zetasizer Nano ZS (He-Ne laser, λ=632 nm). Confocal microscopy was conducted using a Zeiss LSM-710 laser scanning confocal microscope and data analyzed with the Zeiss LSM-710 software.
Cellular uptake and intracellular trafficking was further examined, in vitro experiments were performed using Cy5-labeled mRNA LNPs. […] The progression of Cy5 mRNA was further tracked from the cell membrane to endosomes to lysosomes and quantified co-localization of Cy5 mRNA with lysosomes. […] The overall results connected chemical structure to factors including cellular uptake, endosomal escape, and intracellular trafficking.

C57BL/6 mice [3] = test: Biodistribution of Cy5 Luc mRNA LNPs (ex vivo imaging); type: in vivo; conditions: IV, 0.25 mg/kg, 6 hours, ex vivo organs

| SMILES | co-localization of Cy5 mRNA with lysosomes (IGROVI cells) | cellular uptake (internalization) of Cy5 Luc mRNA LNPs (IGROVI cells) | biodistribution of Cy5 Luc mRNA (ROI values) (C57BL/6 mice [3]) | also measured |
| --- | --- | --- | --- | --- |
| C/C=C/CCCSC(C)C(=O)OCCOC(=O)CCN(CCCN(C)CCCN(CCC(=O)OCCOC(=O)C(C)SCCC/C=C/C)CCC(=O)OCCOC(=O)C(C)SCCC/C=C/C)CCC(=O)OCCOC(=O)C(C)SCCC/C=C/C (centres unmarked) [4A3-4T] |  |  |  | Luc mRNA expression (in vitro Luc mRNA delivery) (IGROV-1 cells): most potent |
| CC/C=C\C/C=C\CSC(C)C(=O)OCCOC(=O)CCN(CCCN(C)CCCN(CCC(=O)OCCOC(=O)C(C)SC/C=C\C/C=C\CC)CCC(=O)OCCOC(=O)C(C)SC/C=C\C/C=C\CC)CCC(=O)OCCOC(=O)C(C)SC/C=C\C/C=C\CC (centres unmarked) [4A3-8/2] |  |  |  | Luc mRNA expression in vivo (mRNA delivery) (C57BL/6 mice [1]): lower Luc expression compared to its alkyl partner |
| CC(C)=CCCC(C)CCSC(C)C(=O)OCCOC(=O)CCN(CCCN(C)CCCN(CCC(=O)OCCOC(=O)C(C)SCCC(C)CCC=C(C)C)CCC(=O)OCCOC(=O)C(C)SCCC(C)CCC=C(C)C)CCC(=O)OCCOC(=O)C(C)SCCC(C)CCC=C(C)C (centres unmarked) [4A3-Cit] | reduced colocalization with lysosomes | effectively internalized | no statistical difference; also recorded: did not change the biodistribution | Luc mRNA expression in vivo (mRNA delivery) (C57BL/6 mice [1]; 0.25 mg/kg): performed better than 4A3-Ne; also recorded: highest efficacy; lipid fusion with the model endosomal membrane [2]: efficacious; also recorded: highest lipid fusion ability; speed of internalization of Cy5 Luc mRNA LNPs (IGROVI cells; at 4 hours, versus saturated 4A3-SC8 LNPs): internalizing slightly faster |
| CCCCCCCCSC(C)C(=O)OCCOC(=O)CCN(CCCN(C)CCCN(CCC(=O)OCCOC(=O)C(C)SCCCCCCCC)CCC(=O)OCCOC(=O)C(C)SCCCCCCCC)CCC(=O)OCCOC(=O)C(C)SCCCCCCCC (centres unmarked) [4A3-SC8, reference compound] | reduced colocalization with lysosomes | effectively internalized | no statistical difference |  |
